In BigSolDB 2.1:

Cc1ccc(S(=O)[O-])cc1.[Na+]
solubility (mole fraction)
Conditions	in DMF	in acetone	in acetonitrile	in ethanol	in isopropanol	in methanol	in n-butanol	in n-propanol	in water
278.15 K	0.00114	0.00039	5.8e-05	0.0031	0.00083	0.0234	0.00032	0.00301	0.0172
283.15 K	0.00169	0.00047	7.7e-05	0.00328	0.00086	0.0313	0.00035	0.00311	0.0201
288.15 K	0.0025	0.00057	9.9e-05	0.00337	0.00089	0.04	0.00039	0.00321	0.0234
293.15 K	0.00365	0.00067	0.00013	0.00345	0.00093	0.0511	0.00043	0.00331	0.0272
298.15 K	0.00525	0.0008	0.00016	0.00354	0.00097	0.0665	0.00047	0.00347	0.0314
303.15 K	0.00747	0.00094	0.00021	0.00363	0.001	0.0851	0.00052	0.00364	0.0358
308.15 K	0.0105	0.00111	0.00027	0.00373	0.00105	0.106	0.00057	0.00381	0.0404
313.15 K	0.0146	0.0013	0.00033	0.00383	0.00109	0.13	0.00063	0.00401	0.0453
318.15 K	0.02	0.00151	0.00041	0.00393	0.00113	0.156	0.00069	0.00421	0.0514
